Results: US20200393473A1, “EZETIMIBE METABOLITE AS A NON-INVASIVE BIOMARKER FOR NON-ALCOHOLIC STEATOHEPATITIS (NASH)” (ARIZONA BOARD OF REGENTS ON BEHALF OF THE UNIVERSITY OF …, priority 2018, published 2020)

How the values were obtained:
[1] = normal healthy individuals, 10 mg oral dose of EZE; cited from earlier work
[2] = EZE-Gluc in plasma and urine in NASH compared with healthy or steatotic livers; format: in vivo; conditions: NASH vs healthy or steatotic livers
Protocol: Furthermore, the inventive technical features of the present invention contributed to a surprising result. A surprising and unexpected result can occur when patients are administered EZE.

[3] = Disposition of EZE and EZE-Gluc in plasma, bile and urine of control and MCD (NASH) rats, LC-MS/MS; format: in vivo, rat; conditions: NASH animal model (MCD rats) vs control, oral EZE
Protocol: Ezetimibe was orally administered to control and MCD rats. Blood and bile were collected and EZE and ZE-Guc were measured by LC-MS/MS. […] The solid and open arrows indicate where NASH caused an increase and decrease, respectively, in the amount of compound in the biological fluid indicated.
Ezetimibe was intravenously administered to control and MCD rats. Blood and bile were collected and EZE and EZE-Guc were measured by LC-MS/MS. […] The solid arrows indicate where NASH caused an increase in the amount of compound in the biological fluid indicated.

| SMILES | average peak blood concentration [1] [ng/mL] | increase in plasma and urine [2] [fold] | biliary elimination [3] | plasma retention [3] |
| --- | --- | --- | --- | --- |
| O=C1[C@H](CC[C@H](O)c2ccc(F)cc2)[C@@H](c2ccc(O)cc2)N1c1ccc(F)cc1 [EZE, ezetimibe] | 4.5 |  |  |  |
| O=C(O)[C@H]1O[C@@H](Oc2ccc([C@@H]3[C@@H](CC[C@H](O)c4ccc(F)cc4)C(=O)N3c3ccc(F)cc3)cc2)[C@H](O)[C@@H](O)[C@@H]1O [EZE-Gluc, ezetimibe-glucuronide] | 92 | ≤ 100 | Decreased Biliary Elimination | Increased Plasma Retention |
